Consider 102 molecules from PubChem BioAssay AID1033 (Sanford-Burnham Center for Chemical Genomics, 2008).

Molecules are shown by their SMILES. Calls of active or inactive are those of the source. No rule for the calls is given here.

Chaperone protein DnaK (Escherichia coli (strain K12)), sequence (P0A6Y8 whole entry, looked up, the tested form may be a part): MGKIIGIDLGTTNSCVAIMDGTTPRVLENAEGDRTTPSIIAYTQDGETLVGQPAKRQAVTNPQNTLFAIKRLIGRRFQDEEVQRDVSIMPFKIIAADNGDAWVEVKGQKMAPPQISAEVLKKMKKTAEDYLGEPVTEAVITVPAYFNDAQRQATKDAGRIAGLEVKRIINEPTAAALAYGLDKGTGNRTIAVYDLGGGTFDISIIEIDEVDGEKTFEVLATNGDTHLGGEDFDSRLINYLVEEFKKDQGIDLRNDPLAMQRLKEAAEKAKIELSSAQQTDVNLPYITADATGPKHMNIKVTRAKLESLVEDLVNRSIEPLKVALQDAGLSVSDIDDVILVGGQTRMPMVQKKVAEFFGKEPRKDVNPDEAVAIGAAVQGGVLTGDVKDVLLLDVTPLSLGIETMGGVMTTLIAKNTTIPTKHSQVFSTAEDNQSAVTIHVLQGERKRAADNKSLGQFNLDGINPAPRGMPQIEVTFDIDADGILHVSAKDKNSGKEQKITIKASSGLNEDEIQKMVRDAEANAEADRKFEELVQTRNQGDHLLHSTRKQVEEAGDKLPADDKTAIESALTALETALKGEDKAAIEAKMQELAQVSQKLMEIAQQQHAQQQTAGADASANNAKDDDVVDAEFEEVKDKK

This test addresses Chaperone protein DnaK (Escherichia coli (strain K12)) (UniProt P0A6Y8). In words: binders of DnaK substrate-binding domain, biophysical, NMR, chaperone (AID 1033). Particulars: Purified DnaK SBD, NMR ligand binding.
As to `N#Cc1c(N)c(C(=O)c2ccccc2)n2c1CCC2`, the Kd (usually the concentration at which binding is half-saturated) was > 4 mM (inactive).
`CC(=O)NC(=S)Nc1ccc(C(C)=O)cc1`: the Kd was > 4 mM (inactive).
For `Clc1ccccc1OCc1nc(-c2ccccn2)no1`, the Kd was > 4 mM (inactive).
Take `Cc1cc(C)n(CCCC(=O)O)n1`: the Kd was > 4 mM (inactive).
Turning to `O=C1C[C@@H](c2ccc(O)cc2)Oc2cc(O)cc(O)c21`, the Kd is > 4 mM (inactive).
Consider `NC(=O)c1cccc(Cl)n1`, for which the Kd was > 4 mM (inactive).
The value for `Cn1nnc2c(N3CCC(C(N)=O)CC3)ncnc21` was > 4 mM (inactive); that for `O=C1CCC(=O)N1c1ccc(F)cc1` was > 4 mM (inactive); that for `O=S1(=O)CCC(NC(=S)Nc2ccc(O)cc2)C1` (configuration not stated) was > 4 mM (inactive).
Next, `O=c1[nH]cc(CN2CCOCC2)c(=O)[nH]1`: > 4 mM (inactive).
Take `CC1=CC(=O)NC2C=CC=CC12` (configuration not stated): the Kd is > 4 mM (inactive).
On to `O=C1CSC(=NC(=O)c2ccccc2)N1`, for which the Kd was > 4 mM (inactive).
`O=C1CSC(=O)N1CN1CCCC1`: the Kd was > 4 mM (inactive).
Take `O=C(O)c1ccc2ncccc2c1`: the Kd was > 4 mM (inactive).
In the case of `O=C(O)CCCCCCCCCCCCC1C=CCC1` (configuration not stated), the Kd is > 4 mM (inactive).
With `CC1=[N+]([O-])C2(N)CCc3c(no[n+]3[O-])C2(O)C1` (configuration not stated), the Kd was > 4 mM (inactive).
On to `O=S(=O)(Nc1cccnc1Cl)c1ccccc1`, for which the Kd is > 4 mM (inactive).
The value for `CC(=O)O[C@H]1C[C@@H](OC(C)=O)C(C)(C)C2C[C@@H](OC(C)=O)[C@@]3(C)C4=CC(=O)O[C@@H](c5ccoc5)[C@]4(C)CCC3[C@]21C` (some centres not stated) was > 4 mM (inactive).
Next, `CN(C)N1C(=O)C2C3C=CC(O3)C2C1=O` (configuration not stated): > 4 mM (inactive).
For the molecule `COc1cc(-c2csc(C)n2)ccc1O`, the Kd is > 4 mM (inactive).
For the molecule `CC(=O)c1cccc(NC(=O)C=C(C)C)c1`, the Kd was > 4 mM (inactive).
Take `OCc1nccn1Cc1ccccc1`: the Kd was > 4 mM (inactive).
The value for `COc1ccc(CN2CCOCC2)c(C)c1C` was > 4 mM (inactive); that for `CN(C)CCCN1CNC(=S)NC1` was > 4 mM (inactive); that for `O=c1/c(=C/c2ccccc2F)sc2ncnn12` was > 4 mM (inactive).
Consider `O=C(O)C12CC3CC(CC(O)(C3)C1)C2`, for which the Kd was > 4 mM (inactive).
Turning to `Cc1nc(-c2cc(C(=O)O)no2)cs1`, the Kd was > 4 mM (inactive).
Turning to `NC(N)=NOCC[C@H](N)C(=O)O`, the Kd is > 4 mM (inactive).
Take `O=C(O)Cn1nnn(-c2ccccc2)c1=S`: the Kd is > 4 mM (inactive).
Next, `CSc1nc(=O)[nH]c2c1CCC2`: > 4 mM (inactive); `O=C(OCc1c(F)cccc1Cl)c1cnccn1`: > 4 mM (inactive); `CCOc1nc(C)ccc1-c1noc(-c2ccncc2)n1`: > 4 mM (inactive).
The value for `O=C1CSC2=NCCCN12` was > 4 mM (inactive); that for `OC1COCc2nc3ccccc3n2C1` (configuration not stated) was > 4 mM (inactive); that for `O=S1(=O)CCC(NCc2ccccc2)C1` (configuration not stated) was > 4 mM (inactive).
The value for `CC(=O)N1CCC(NC2CCCCCC2)CC1` was > 4 mM (inactive); that for `COC(=O)c1ccc(N2CCCC2)nc1` was > 4 mM (inactive).
With `O=c1c(O)c(-c2ccccc2)oc2ccc3occc3c12`, the Kd is > 4 mM (inactive).
In the case of `COn1c(=O)c(C)[n+]([O-])c2ccccc21`, the Kd is > 4 mM (inactive).
`CC(C)NC(=O)Cc1c(O)c2ccccc2[nH]c1=O`: the Kd is > 4 mM (inactive).
As for `CCCNC(=O)CSc1nnc(C)s1`, the Kd is > 4 mM (inactive).
The value for `O=C(NC1=NCCS1)c1ccc(Cl)s1` was > 4 mM (inactive); that for `O=c1[nH]c2sc3c(c2c2nncn12)CCCC3` was > 4 mM (inactive); that for `O=C(O)c1cccc2c1OCCO2` was > 4 mM (inactive).
With `COc1c(O)cccc1O`, the Kd was > 4 mM (inactive).
Take `CCNC(=S)N1CCCC(C(N)=O)C1` (configuration not stated): the Kd was > 4 mM (inactive).
Next, `Nc1[nH]c(=S)ncc1S(=O)(=O)c1ccccc1`: > 4 mM (inactive); `Nc1nc2ncc(CNc3ccc(C(=O)N[C@@H](CCC(=O)O)C(=O)O)cc3)nc2c(=O)[nH]1`: > 4 mM (inactive); `COc1c(-c2ccccc2)oc2c(OC)cccc2c1=O`: > 4 mM (inactive).
The value for `CC1CN(C(=O)c2ccncc2)CC(C)O1` (configuration not stated) was > 4 mM (inactive); that for `Clc1ccc2c(N3CCNCC3)ccnc2c1` was > 4 mM (inactive); that for `Cn1c(=O)n(CC(=O)N2CCOCC2)c2ccccc21` was > 4 mM (inactive).
Consider `COc1ccc(-c2cc(=O)c3c(O)cc(O)c(-c4cc(-c5cc(=O)c6c(O)cc(O)cc6o5)ccc4OC)c3o2)cc1`, for which the Kd was > 4 mM (inactive).
Next, `COc1cc(OC)c2c(=O)c(O)c(-c3ccc(OC)c(OC)c3)oc2c1`: > 4 mM (inactive).
For the molecule `O=C(O)c1ccc2ccccc2n1`, the Kd is > 4 mM (inactive).
The value for `Nc1cc(=O)[nH]c(=O)n1-c1ccccc1` was > 4 mM (inactive); that for `CCN1CCC(NC2CCC(O)CC2)CC1` (configuration not stated) was > 4 mM (inactive); that for `CCSc1nc(N)c(NC(=O)c2ccco2)c(=O)[nH]1` was > 4 mM (inactive).
On to `CC1(C)Cc2nc3[nH]c(=S)[nH]c(=O)c3cc2CO1`, for which the Kd was > 4 mM (inactive).
As to `N#CCSc1nc(-c2ccccc2)cs1`, the Kd was > 4 mM (inactive).
The value for `Cc1noc(C)c1C(=O)NCc1cccs1` was > 4 mM (inactive).
The value for `COc1ccc2c(c1)O[C@@H]1COc3cc(OC)c(OC)cc3[C@@H]1C2=O` was > 4 mM (inactive).
The value for `NC(=O)CNC(=O)c1ccc2ccccc2n1` was > 4 mM (inactive); that for `COc1cc2c(cc1OC)[C@@H]1C(=O)c3ccc(OC)c(CC=C(C)C)c3O[C@@H]1CO2` was > 4 mM (inactive); that for `O=C(Nc1ccon1)c1ccc(Cl)s1` was > 4 mM (inactive).
`CC(O)(C(=O)O)c1ccccc1` (configuration not stated): the Kd was > 4 mM (inactive).
The value for `NC(=O)C1CCN(C(=O)c2ccco2)CC1` was > 4 mM (inactive); that for `CN1CCC(NC(=S)NC2CC2)CC1` was > 4 mM (inactive); that for `COC(=O)c1ccccc1C` was > 4 mM (inactive).
The value for `CC1(C)CC2(CCO1)NCCN1C(=O)CSC12` (configuration not stated) was > 4 mM (inactive); that for `COC(=O)[C@]1(C)CC[C@]2(C)CC[C@]3(C)C4=CCc5c(cc(O)c(O)c5C)[C@]4(C)CC[C@@]3(C)C2C1` (some centres not stated) was > 4 mM (inactive).
The value for `CCN1C(=O)c2c(C)nc3ccccc3c2C1=O` was > 4 mM (inactive).
Turning to `CC(=O)Nc1cnn(-c2ccccc2)c(=O)c1Cl`, the Kd is > 4 mM (inactive).
The value for `CC1(C)CCC(C)(C)c2cc(C(=O)O)ccc21` was > 4 mM (inactive); that for `c1ccc(Cc2nn3c(-c4ccncc4)nnc3s2)cc1` was > 4 mM (inactive).
Regarding `COC(=O)c1cn(C(=O)OC)c2ccccc12`, the Kd is > 4 mM (inactive).
As for `O=C1CCCC(=O)N1Cc1ccco1`, the Kd was > 4 mM (inactive).
With `C[C@H]1O[C@@H](O[C@H]2[C@@H](O)C[C@H](O[C@H]3[C@@H](O)C[C@H](O[C@H]4CC[C@]5(C)C6C[C@@H](O)[C@]7(C)[C@@H](C8=CC(=O)OC8)CC[C@]7(O)C6CC[C@@H]5C4)O[C@@H]3C)O[C@@H]2C)C[C@H](O)[C@@H]1O` (some centres not stated), the Kd is > 4 mM (inactive).
Next, `COc1ccc2c(c1)C(NC(C)=O)C(=O)N2C` (configuration not stated): > 4 mM (inactive); `C[C@@H]1CCC2[C@](C)(CO)[C@@H](O)CC[C@]2(C)[C@@]12CC[C@@](CO)(CCO)O2` (some centres not stated): > 4 mM (inactive).
The value for `CN(C)S(=O)(=O)c1ccc(NC=O)cc1` was > 4 mM (inactive).
Next, `COc1c(-c2coc3cc4c(cc3c2=O)CC(O)C(C)(C)O4)ccc2c1C=CC(C)(C)O2` (configuration not stated): > 4 mM (inactive).
In the case of `CC1(C)Cc2c(c(-c3ccco3)[nH]c(=O)c2C#N)CO1`, the Kd was > 4 mM (inactive).
Turning to `CNC(=O)C(=O)NCc1ccc(C)cc1`, the Kd is > 4 mM (inactive).
For the molecule `CCOc1cc(S(=O)(=O)N2CCOCC2)ccc1F`, the Kd was > 4 mM (inactive).
Take `OCc1csc(-c2cccs2)n1`: the Kd was > 4 mM (inactive).
The value for `COc1ccc(-c2ccc(=O)n(CC(N)=O)n2)cc1` was > 4 mM (inactive).
For the molecule `O=c1cc(O)nc(SCc2ccccc2)[nH]1`, the Kd is > 4 mM (inactive).
The value for `CCc1ccc2oc(-c3cc(N)cc(C)c3O)nc2c1` was > 4 mM (inactive).
In the case of `Cc1ccsc1/C=c1\sc2ncnn2c1=O`, the Kd is > 4 mM (inactive).
As for `c1ccc(-c2csc(Nc3cccnc3)n2)nc1`, the Kd is > 4 mM (inactive).
Consider `O=c1cc(-c2cc(O)c(O)c(O)c2)oc2cc(O)cc(O)c12`, for which the Kd was > 4 mM (inactive).
Next, `NS(=O)(=O)c1ccc(N=C2NC(=O)CS2)cc1`: > 4 mM (inactive).
As to `CC(Sc1ncn[nH]1)C(=O)O` (configuration not stated), the Kd was > 4 mM (inactive).
Turning to `CCOC(=O)c1cc2ccccc2oc1=O`, the Kd was > 4 mM (inactive).
The value for `COC1=CC23CCCN2CCc2cc4c(cc2C3C1O)OCO4` (configuration not stated) was > 4 mM (inactive); that for `Cc1nnc(SCC(=O)N2CCc3ccccc32)s1` was > 4 mM (inactive); that for `Cc1c(C)[n+]([O-])c(-c2ccc([N+](=O)[O-])cc2)n1O` was > 4 mM (inactive).
Next, `CSc1n[nH]c(NCc2ccccc2)n1`: > 4 mM (inactive); `COc1ccccc1-c1noc(-c2ccco2)n1`: > 4 mM (inactive); `COc1ccc(-c2nc(C)sc2CC(=O)O)cc1`: > 4 mM (inactive).
Next, `O=C(O)c1ccc(N2CCOCC2)nc1`: > 4 mM (inactive).
